Measured values taken from PubChem BioAssay AID270 (DTP/NCI, 2004).
“And” between values parts separate entries of the source, which are not always exact repeats. Identical values can stand only once. Inconclusive results are not listed.

System: BDF1 mice, s.c. Lewis lung carcinoma, T/C %
Test: NCI In Vivo Anticancer Drug Screen. Data for tumor model Lewis Lung Carcinoma (subcutaneous) in B6D2F1 (BDF1) mice
How it was run: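 Transplanted tumors grown in mice; compound vs vehicle dosing; endpoint survival or tumor size; ratio T/C.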

[1] = endpoint: median survival time, dose: 50.0 mg/kg/injection, schedule: Q01DX009 (ip), vehicle: Klucel (hydroxypropylcellulose) (HPC), higher = longer survival
[2] = endpoint: median survival time, dose: 100.0 mg/kg/injection, schedule: Q01DX009 (ip), vehicle: Klucel (hydroxypropylcellulose) (HPC), higher = longer survival

For `COc1ccc(C[C@H](N)C(=O)NC2C(CO)OC(n3cnc4c(N(C)C)ncnc43)C2O)cc1` (stereo partly drawn), the T/C (endpoint: median survival time, dose: 2.0 mg/kg/injection, schedule: Q01DX009 (ip), vehicle: saline, higher = longer survival) was 97 % of control, the T/C (endpoint: median survival time, dose: 4.0 mg/kg/injection, schedule: Q01DX009 (ip), vehicle: saline, higher = longer survival) was 96 % of control and 101 % of control and the T/C (endpoint: median survival time, dose: 8.0 mg/kg/injection, schedule: Q01DX009 (ip), vehicle: saline, higher = longer survival) was 102 % of control. The T/C (endpoint: median survival time, dose: 16.0 mg/kg/injection, schedule: Q01DX009 (ip), vehicle: saline, higher = longer survival) was 99 % of control, the T/C (endpoint: median survival time, dose: 32.0 mg/kg/injection, schedule: Q01DX009 (ip), vehicle: saline, higher = longer survival) was 90 % of control and 110 % of control and the T/C (endpoint: median survival time, dose: 64.0 mg/kg/injection, schedule: Q01DX009 (ip), vehicle: saline, higher = longer survival) was 97 % of control and 102 % of control. The T/C (endpoint: median survival time, dose: 128.0 mg/kg/injection, schedule: Q01DX009 (ip), vehicle: saline, higher = longer survival) was 102 % of control.

`Nc1nc(SCc2ccccc2Cl)c2[nH]cnc2n1` was tested, and the T/C (endpoint: mean tumor weight, dose: 3.8 mg/kg/injection, schedule: Q01DX011 (ip), vehicle: other, higher = larger tumour) was 82 % of control, the T/C (endpoint: mean tumor weight, dose: 7.5 mg/kg/injection, schedule: Q01DX011 (ip), vehicle: other, higher = larger tumour) was 38 % of control and the T/C (endpoint: mean tumor weight, dose: 15.0 mg/kg/injection, schedule: Q01DX011 (ip), vehicle: other, higher = larger tumour) was 99 % of control. The T/C (endpoint: mean tumor weight, dose: 60.0 mg/kg/injection, schedule: Q01DX011 (ip), vehicle: other, higher = larger tumour) was 29 % of control and the T/C (endpoint: mean tumor weight, dose: 120.0 mg/kg/injection, schedule: Q01DX011 (ip), vehicle: other, higher = larger tumour) was 11 % of control.

`C=C(C)[C@@H]1CC[C@]2(CO)CC[C@]3(C)[C@H](CC[C@@H]4[C@@]5(C)CC[C@H](O)C(C)(C)[C@@H]5CC[C@]43C)[C@@H]12` was tested, and the T/C (endpoint: mean tumor weight, dose: 100.0 mg/kg/injection, schedule: Q01DX011 (ip), vehicle: carboxymethylcellulose (CMC), higher = larger tumour) was 101 % of control and the T/C (endpoint: mean tumor weight, dose: 200.0 mg/kg/injection, schedule: Q01DX011 (ip), vehicle: carboxymethylcellulose (CMC), higher = larger tumour) was 68 % of control.

With `CC1(c2ccc(N(CCCl)CCCl)cc2)NC(=O)NC1=O` (stereo not drawn) the T/C (endpoint: median survival time, dose: 12.5 mg/kg/injection, schedule: Q01DX009 (ip), vehicle: Klucel (hydroxypropylcellulose) (HPC), higher = longer survival) was 111 % of control, the T/C (endpoint: median survival time, dose: 25.0 mg/kg/injection, schedule: Q01DX009 (ip), vehicle: Klucel (hydroxypropylcellulose) (HPC), higher = longer survival) was 91 % of control and the T/C [1] was 98 % of control. For the same molecule, the T/C [2] was 115 % of control.

With `CNC(=O)N(C)c1cc(N(C)C)nc(OC)n1` the T/C (endpoint: median survival time, dose: 5.0 mg/kg/injection, schedule: Q01DX009 (ip), vehicle: Klucel (hydroxypropylcellulose) (HPC), higher = longer survival) was 98 % of control and the T/C (endpoint: median survival time, dose: 10.0 mg/kg/injection, schedule: Q01DX009 (ip), vehicle: Klucel (hydroxypropylcellulose) (HPC), higher = longer survival) was 115 % of control.

In the case of `CC(=O)CC(C)=O.CC(=O)CC(C)=O.CC(=O)CC(C)=O.[V]`, the T/C (endpoint: median survival time, dose: 3.12 mg/kg/injection, schedule: Q01DX009 (ip), vehicle: saline, higher = longer survival) is reported as 109 % of control, the T/C (endpoint: median survival time, dose: 6.25 mg/kg/injection, schedule: Q01DX009 (ip), vehicle: saline, higher = longer survival) is reported as 109 % of control and the T/C (endpoint: median survival time, dose: 12.5 mg/kg/injection, schedule: Q01DX009 (ip), vehicle: saline, higher = longer survival) is reported as 94 % of control.

In the case of `COc1cc(OC)c(OC)cc1/C=C\c1ccnc2ccccc12`, the T/C [1] is reported as 94 % of control, the T/C [2] is reported as 93 % of control and the T/C (endpoint: median survival time, dose: 400.0 mg/kg/injection, schedule: Q01DX009 (ip), vehicle: Klucel (hydroxypropylcellulose) (HPC), higher = longer survival) is reported as 97 % of control.

`NC(=O)N(CCCl)N=O` was tested, and the T/C (endpoint: mean tumor weight, dose: 0.63 mg/kg/injection, schedule: Q01DX011 (ip), vehicle: saline, higher = larger tumour) was 80 % of control, the T/C (endpoint: mean tumor weight, dose: 1.25 mg/kg/injection, schedule: Q01DX011 (ip), vehicle: saline, higher = larger tumour) was 53 % of control and the T/C (endpoint: mean tumor weight, dose: 2.5 mg/kg/injection, schedule: Q01DX011 (ip), vehicle: saline, higher = larger tumour) was 10 % of control. For the same molecule, the T/C (endpoint: median survival time, dose: 1.0 mg/kg/injection, schedule: Q01DX001 (ip), vehicle: saline + alcohol, higher = longer survival) was 120 % of control.

In the case of `O=c1c(O)c(-c2ccc(O)c(O)c2)oc2cc(O)ccc12`, the T/C (endpoint: mean tumor weight, dose: 12.5 mg/kg/injection, schedule: Q01DX011 (ip), vehicle: saline, higher = larger tumour) is reported as 99 % of control, the T/C (endpoint: mean tumor weight, dose: 25.0 mg/kg/injection, schedule: Q01DX011 (ip), vehicle: saline, higher = larger tumour) is reported as 95 % of control and the T/C (endpoint: mean tumor weight, dose: 50.0 mg/kg/injection, schedule: Q01DX011 (ip), vehicle: saline, higher = larger tumour) is reported as 91 % of control.

In the case of `CC(C)(CC(=O)O)CC(=O)OCC(=O)[C@@]1(O)CC[C@H]2[C@@H]3CCC4=CC(=O)C=C[C@]4(C)[C@H]3[C@@H](O)C[C@@]21C`, the T/C (endpoint: mean tumor weight, dose: 40.0 mg/kg/injection, schedule: Q01DX011 (sc), vehicle: steriod suspending solution, higher = larger tumour) is reported as 69 % of control, the T/C (endpoint: mean tumor weight, dose: 80.0 mg/kg/injection, schedule: Q01DX011 (sc), vehicle: steriod suspending solution, higher = larger tumour) is reported as 76 % of control and the T/C (endpoint: mean tumor weight, dose: 160.0 mg/kg/injection, schedule: Q01DX011 (sc), vehicle: steriod suspending solution, higher = larger tumour) is reported as 60 % of control. For the same molecule, the T/C (endpoint: mean tumor weight, dose: 320.0 mg/kg/injection, schedule: Q01DX011 (sc), vehicle: steriod suspending solution, higher = larger tumour) was 51 % of control and 57 % of control and the T/C (endpoint: mean tumor weight, dose: 640.0 mg/kg/injection, schedule: Q01DX011 (sc), vehicle: steriod suspending solution, higher = larger tumour) was 31 % of control.
